{"source": "patent US12076307B2", "about": "“Compositions for prevention or treatment of acute radiation syndrome and other radiation exposure” (priority 2017, dated 2024)", "key": {"[1]": {"test_system": "Balb/c mice, TBI 6.5 or 8 Gy", "test": "Radiation-induced skin damage (erythema) in lethal ARS mouse models", "format": "in vivo", "text": "In order to evaluate effects of PLAG on recovery skin damage of animal models exposed to radiation, the following test groups were constructed as shown in Table 4 and results are shown in FIGS. 13-15. As discussed in Examples above, the first group of untreate group (negative control) of mice after radiation was compared to the second group of treated group of mice with PLAG after radiation.\nIn addition to the ARS survival studies that have been conducted in mice, a series of studies that probe secondary measures of efficacy in radiation-induced skin damage in the Balb/c mice (n=10/sex/group). […] The development of skin damage (erythema and reddening) on the tails were evaluated.\nIn the following study, Balb/c mice (n=5 females/group) were exposed with a supra-lethal radiation dosage of 8 Gy and treated with EC-18 daily at 250 mg/kg/day for 17 days.\nThe secondary measures of EC-18's efficacy on the supra-LD (8 Gy) of radiation-induced skin damage were assessed. Female BALB/c mice (9 weeks of age) were randomly divided into 2 cohorts and daily administered in-life with the vehicle control (PBS) and EC-18 at 250 mg/kg (n=5/each cohort)."}, "[2]": {"test": "In vitro metabolite screening, dog liver microsomes", "format": "in vitro ADME", "conditions": "N=2", "protocol": "[^14C]EC-18 or the positive control (7-ethoxycoumarin; 7-EC) reacted with microsomes prepared from hepatocytes of rats, dogs, monkeys, and humans, with or without cofactors, for 60 and 120 min. Then, the residual EC-18 concentration over time was measured by LC-RID ([^14C]EC-18) or LC-MS/MS (7-EC) (FIG. 63 and FIG. 64).\nThe LC-RID chromatographic profiles of radioactive metabolites produced in the 2-hr incubation reaction mixtures of the same test systems A, B, and C used to assess the metabolic and non-metabolic elimination rates of EC-18 were compared to the LC-UV chromatographic profiles of the synthetic reference material. […] The relative radioactivity of EC-18 accounted for 42-67% of total radioactivity. The peaks designated as M2, M3, and M5 were also determined in all species, and their relative radioactivity accounted for 12-34% of total radioactivity. The peaks of M4 and M6 were determined in monkeys and humans. M1 was abundantly detected in all species, but it was assumed to be a peak of early elution. The LC-UV chromatograms of reaction mixtures in each test system (FIGS. 65A-65C) and the relative radioactivity of the screened metabolites are shown in Table 25."}, "Balb/c mice, TBI 6.5 Gy": {"test_system": "Balb/c mice, TBI 6.5 Gy", "test": "Survival in extreme LD100 TBI murine model (6.5 Gy)", "format": "in vivo, mouse", "conditions": "for Survival: 250 mg/kg/day 16 days", "protocol": "Animals were treated orally with phosphate-buffered saline or EC-18 at 250 mg/kg/day for 16 days."}, "[3]": {"test_system": "BALB/c mice, 6.11 Gy γ-radiation TBI", "test": "Hematopoietic ARS (H-ARS) CBC time course, 6.11 Gy", "format": "in vivo, mouse", "protocol": "For the time course analysis of hematopoietic ARS (H-ARS), female mice were grouped 5 per treatment cohorts; γ-radiation only cohort (positive control) and γ-radiation with EC-18 250 mg/kg cohort. For the analysis of dose effect of EC-18 administration on H-ARS, mice were grouped 8 (5 males and 3 females) per treatment cohorts; γ-radiation only cohort (positive control), γ-radiation with EC-18 50 mg/kg cohort, γ-radiation with EC-18 100 mg/kg cohort, γ-radiation with EC-18 250 mg/kg cohort and γ-radiation with EC-18 100 mg/kg cohort. The whole blood was collected from the orbital sinuses using EDTA-free capillary tubes (Kimble Chase Life Science and Research Products LLC, FL, USA) and collection tubes containing K3E-K3EDTA (Greiner Bio-One International, Kremsmunster, Austria).\nThe therapeutic effect of EC-18 administration on H-ARS was then evaluated. […] Groups of BALB/c mice (n=5, female for FIG. 32A through FIG. 32E and n=8, 5 male, 3 female for FIG. 32F through FIG. 32J) were exposed to 6.11Gy of γ-radiation and various doses of EC-18 were orally administered once daily to day 15, or remained untreated. FIGS. 32A through 32E show the time course of the white blood cell count (WBC; FIG. 32A), absolute Neutrophil count (ANC; FIG. 32B), absolute Lymphocyte count (ALC; FIG. 32C), platelet count (PLT; FIG. 32D) and red blood cell count (RBC; FIG. 32E) over 15 days, respectively. FIG. 32F through FIG. 32J show the dose effect of EC-18 administration on WBC (FIG. 32F), ANC (FIG. 32G), ALC (FIG. 32H), PLT (FIG. 32I) and BRC (FIG. 32J) on day 15, respectively. ns; not significant,* p<0.05, **p<0.01, *** p<0.005."}, "Balb/c mice, TBI": {"test_system": "Balb/c mice, TBI", "test": "Estimation of dose reduction factor (DRF)", "format": "in vivo, mouse", "protocol": "Analysis of several TBI, 24-hr delayed administration of EC-18 at 250 mg/kg in Balb/c mice yields an estimate of the dose reduction factor (DRF) of EC-18."}, "[4]": {"test_system": "S. typhi-murium (TA98, TA100, TA1535, TA1537), E. coli (WP2uvrA(pKM101))", "format": "cell-based", "conditions": "in vitro; 48 hr; 312.5-5000 μg/plate", "text": "Various toxicology studies have been performed. All studies were GLP-compliant unless otherwise noted."}, "[5]": {"test": "Plasma radioactivity in rats after single oral or IV [14C]EC-18", "format": "in vivo, rat", "conditions": "oral, fed condition", "protocol": "Male SD rats in the fed state were administered a single oral dose of 25, 50, or 100 mg/kg (vehicle: olive oil) or a single IV injection of 10 mg/kg of [^14C]EC-18 (EC-18 with radioactive isotope ^14C attached). Subsequently, the PK parameters were assessed. The concentration of radioactivity in rat plasma was measured by liquid scintillation counting (LSC) method after adding a scintillator (Clear-Sol I, Nacalai Tesque, Inc)."}, "[6]": {"conditions": "EC-18 250 mg/kg daily, n=5 female"}}, "data": [{"smiles": "CCCCC/C=C\\C/C=C\\CCCCCCCC(=O)OC(COC(C)=O)COC(=O)CCCCCCCCCCCCCCC", "note": "(centres unmarked) [EC-18, 1-palmitoyl-2-linoleoyl-3-acetylglycerol]", "values": [{"measurement": "skin damage (erythema and reddening) on the tails vs PBS", "setting": "[1]; 6.5 Gy, 250 mg/kg/day 30 days", "result": "substantial reduction of tail erythema"}, {"measurement": "skin damage (necrosis, ulceration, blistering, hair loss) on tails and feet vs PBS", "setting": "[1]; 8 Gy, 250 mg/kg/day 17 days, n=5 females", "result": "extensively reduced"}, {"measurement": "mice with any skin damage on the tails", "setting": "[1]; 8 Gy, 250 mg/kg, n=5, day 10", "result": "none of the five"}, {"measurement": "mice with slight hemorrhagic telangiectasia on the front right feet", "setting": "[1]; 8 Gy, 250 mg/kg, n=5, day 10", "result": "Only one individual"}, {"measurement": "Mean Peak Area in LC-RID", "setting": "[2]; A (NADPH added), [14C]EC-18 2 hrs", "result": 52.6, "unit": "%"}, {"measurement": "Mean Peak Area in LC-RID", "setting": "[2]; B (NADPH, PAPS, UDPGA added), 2 hrs", "result": 54.3, "unit": "%"}, {"measurement": "Mean Peak Area in LC-RID", "setting": "[2]; C (no cofactor added), 2 hrs", "result": 56.6, "unit": "%"}, {"measurement": "signs of subcutaneous hemorrhage", "setting": "Balb/c mice, TBI 6.5 Gy; 250 mg/kg/day", "result": "markedly improved"}, {"measurement": "Survival", "setting": "Balb/c mice, TBI 6.5 Gy; started 24-hr post-irradiation", "result": 65, "unit": "%"}, {"measurement": "Survival", "setting": "Balb/c mice, TBI 6.5 Gy; started 48-hr post-irradiation", "result": 25, "unit": "%"}, {"measurement": "duration of severe neutropenia", "setting": "[3]; [6]", "result": "7.2 ± 1.79", "unit": "days"}, {"measurement": "mean first day of neutropenia (ANC<500 cells/μL)", "setting": "[3]; [6]", "result": "2.2 ± 1.09", "unit": "days"}, {"measurement": "mean nadir of ANC", "setting": "[3]; [6]", "result": "20.0±10.00", "unit": "cells/μL"}, {"measurement": "reduction of PLT and RBC induced by a single TBI", "setting": "[3]; oral once daily to day 15", "result": "attenuated"}, {"measurement": "γ-radiation-induced depletion of WBC, ANC and ALC", "setting": "[3]; oral once daily to day 15", "result": "significantly attenuated"}, {"measurement": "DRF at LD30/30", "setting": "Balb/c mice, TBI; 250 mg/kg", "result": 1.45}, {"measurement": "DRF at LD70/30", "setting": "Balb/c mice, TBI; 250 mg/kg", "result": 1.18}, {"measurement": "DRF at LD95/30", "setting": "Balb/c mice, TBI; 250 mg/kg", "result": 1.05}, {"measurement": "LD Estimate LD30/30, Presence of EC-18", "setting": "Balb/c mice, TBI; 250 mg/kg", "result": 5.26, "unit": "Gy"}, {"measurement": "LD Estimate LD50/30, Presence of EC-18", "setting": "Balb/c mice, TBI; 250 mg/kg", "result": 5.50, "unit": "Gy"}, {"measurement": "LD Estimate LD70/30, Presence of EC-18", "setting": "Balb/c mice, TBI; 250 mg/kg", "result": 5.76, "unit": "Gy"}, {"measurement": "LD Estimate LD95/30, Presence of EC-18", "setting": "Balb/c mice, TBI; 250 mg/kg", "result": 6.09, "unit": "Gy"}, {"measurement": "Lethality, Presence of EC-18", "setting": "Balb/c mice, TBI; 6.11 Gy, 250 mg/kg 24-hr delayed", "result": "6/40 (15%)"}, {"measurement": "Lethality, Presence of EC-18", "setting": "Balb/c mice, TBI; 6.5 Gy, 250 mg/kg 24-hr delayed", "result": "8/20 (40%)"}, {"measurement": "Lethality, Presence of EC-18", "setting": "Balb/c mice, TBI; 7 Gy, 250 mg/kg", "result": "10/10 (100%)"}, {"measurement": "Lethality, Presence of EC-18", "setting": "Balb/c mice, TBI; 8 Gy, 250 mg/kg", "result": "10/10 (100%)"}, {"measurement": "Lethality, Presence of EC-18", "setting": "Balb/c mice, TBI; 10 Gy, 250 mg/kg", "result": "4/4 (100%)"}, {"measurement": "induction of reverse mutation", "setting": "[4]", "result": "No potential of EC-18"}, {"measurement": "absolute bioavailability (BA)", "setting": "[5]", "result": "approximately 46%"}]}]}
